Tested on: NK92-mi NK cells
Test: NK cell surface modification efficiency (fluorescence intensity, cell coating efficacy)
Assay type: cell-based
Details: polymer 1.0 mg/mL, 30 minutes at room temperature
Procedure: A polymer compound (HA-PEG-DSPE) was dissolved in MEM alpha at a concentration of 1.0 mg/mL, and 5×10^5 NK92-mi NK cells were evenly mixed with 100 μL of solution. The surface of NK cell was modified (HA-PEG-DSPE bound to NK cell) at room temperature for 30 minutes and then washed twice with MEM alpha. Cells were then lysed with 250 μL of RIPA buffer and stored at 4° C. for 30 minutes. Finally, 250 μL of distilled water was added, diluted, and transferred to 96-well to measure fluorescence intensity at 480/535 nm.

Substance | fluorescence intensity on NK cell | cell coating efficacy of NK cell
PEG600 | fluorescence intensity is not substantially measured | –
PEG2000 | strong fluorescence intensity is measured on the surface of NK cell | higher coating efficacy (cell coating efficacy, ng/10^5 cells) of NK cell compared to the polymer compound using PEG600 and PEG5000

Reference: patent US20260041770A1, “CELL MEMBRANE-ATTACHED HYALURONIC ACID-CD44 SPECIFIC BINDING REACTION POLYMER COMPOUND TO ENHANCE THE IMMUNE-ANTICANCER FUNCTION OF NATURAL KILLER CELLS” (DONGGUK UNIVERSITY INDUSTRY-ACADEMIC COOPERATION FOUNDATION, priority 2023, published 2026)
